Results taken from US7883785B2, “Rhodium and iridium complexes” (Merck Patent GmbH, priority 2002, dated 2011).

Experiment: Solubilities of various complexes in toluene at 20° C.
Format: physicochemical
Conditions: table title: Solubilities of various complexes

Row | SMILES | Solubility in toluene at 20° C. [mg/mL]
1 | Cc1ccc(C)c(-c2ccc3[c](c2)[Ir-3]24([c]5cc(-c6cc(C)ccc6C)ccc5-c5cccc[n+]52)([c]2cc(-c5cc(C)ccc5C)ccc2-c2cccc[n+]24)[n+]2ccccc2-3)c1 [Compound 7, fac-Tris[2-(2-pyridinyl-κN)(5-(2,5-dimethylphenyl)phenyl)-κC]-iridium(III)] | 32
2 | Cc1ccccc1-c1ccc2[c](c1)[Ir-3]13([c]4cc(-c5ccccc5C)ccc4-c4cccc[n+]41)([c]1cc(-c4ccccc4C)ccc1-c1cccc[n+]13)[n+]1ccccc1-2 [Compound 2, fac-tris[2-(2-pyridinyl-κN)(5-(o-tolyl)phenyl)-κC]iridium(III)] | 25
3 | c1ccc(-c2ccc3[c](c2)[Ir-3]24([c]5cc(-c6ccccc6)ccc5-c5cccc[n+]52)([c]2cc(-c5ccccc5)ccc2-c2cccc[n+]24)[n+]2ccccc2-3)cc1 [Compound 1, fac-Tris[2-(2-pyridinyl-κN)(5-(phenyl)phenyl)-κC]iridium(III)] | 6.3
4 | CC(C)COc1ccc(-c2ccc3[c](c2)[Ir-3]24([c]5cc(-c6ccc(OCC(C)C)c(OCC(C)C)c6)ccc5-c5cccc[n+]52)([c]2cc(-c5ccc(OCC(C)C)c(OCC(C)C)c5)ccc2-c2cccc[n+]24)[n+]2ccccc2-3)cc1OCC(C)C [Compound 8, fac-Tris[2-(2-pyridinyl-κN)(5-(3,4-bis(2-methylpropoxy)phenyl)phenyl)-κC]iridium(III)] | 92
